# Data from publication PMC9516332 (Frontiers in Oncology, 2022).
# Read-outs that look alike come from different tables or passages of the source.
# Assays:
# Assay in all cases: Kinase panel profiling at 1 µmol/L (MSA or IMAP), percentage inhibition
# Assay type in all cases: biochemical
# [1] = biological target: panel of 255 wild-type kinases (Homo sapiens, UniProt P35968); details: read-out: %-inhibition at 1 µmol/L, KDR
# [2] = biological target: panel of 255 wild-type kinases (Homo sapiens, UniProt P35916); details: kinase FLT4; 1 µmol/L single concentration; read-out: %-inhibition at 1 µmol/L, FLT4
# [3] = biological target: T1, panel of 255 wild-type kinases (Homo sapiens, UniProt Q9BZL6); details: kinase PKD2; 1 µmol/L single concentration; read-out: %-inhibition at 1 µmol/L, PKD2
# T1 sequence (Q9BZL6 1-878): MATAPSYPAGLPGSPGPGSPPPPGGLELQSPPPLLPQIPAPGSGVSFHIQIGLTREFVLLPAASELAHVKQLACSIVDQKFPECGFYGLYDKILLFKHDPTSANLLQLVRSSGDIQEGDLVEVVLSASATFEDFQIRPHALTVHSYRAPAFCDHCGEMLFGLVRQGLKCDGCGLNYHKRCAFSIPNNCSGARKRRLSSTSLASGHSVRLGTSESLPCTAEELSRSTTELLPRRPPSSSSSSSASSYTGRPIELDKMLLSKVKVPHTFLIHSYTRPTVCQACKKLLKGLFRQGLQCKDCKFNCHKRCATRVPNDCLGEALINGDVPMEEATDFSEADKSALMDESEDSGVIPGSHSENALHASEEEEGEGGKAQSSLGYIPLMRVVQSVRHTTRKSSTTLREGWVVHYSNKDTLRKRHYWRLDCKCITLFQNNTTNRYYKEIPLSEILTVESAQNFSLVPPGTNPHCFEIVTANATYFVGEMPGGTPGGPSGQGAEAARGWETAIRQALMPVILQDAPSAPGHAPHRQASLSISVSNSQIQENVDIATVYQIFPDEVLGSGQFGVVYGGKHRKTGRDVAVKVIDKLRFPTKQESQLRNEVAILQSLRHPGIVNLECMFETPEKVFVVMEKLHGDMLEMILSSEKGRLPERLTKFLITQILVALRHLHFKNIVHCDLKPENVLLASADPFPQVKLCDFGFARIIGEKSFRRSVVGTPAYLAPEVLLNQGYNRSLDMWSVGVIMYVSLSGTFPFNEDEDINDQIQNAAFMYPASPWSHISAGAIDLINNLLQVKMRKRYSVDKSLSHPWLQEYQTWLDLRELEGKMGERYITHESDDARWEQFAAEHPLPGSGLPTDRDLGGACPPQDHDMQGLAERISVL
# [4] = biological target: panel of 255 wild-type kinases (Homo sapiens, UniProt P07949); details: kinase RET; 1 µmol/L single concentration; read-out: %-inhibition at 1 µmol/L, RET
# [5] = biological target: T2, panel of 255 wild-type kinases (Homo sapiens, UniProt P43403); details: kinase ZAP70; 1 µmol/L single concentration; read-out: %-inhibition at 1 µmol/L, ZAP70
# T2 sequence (P43403 1-619): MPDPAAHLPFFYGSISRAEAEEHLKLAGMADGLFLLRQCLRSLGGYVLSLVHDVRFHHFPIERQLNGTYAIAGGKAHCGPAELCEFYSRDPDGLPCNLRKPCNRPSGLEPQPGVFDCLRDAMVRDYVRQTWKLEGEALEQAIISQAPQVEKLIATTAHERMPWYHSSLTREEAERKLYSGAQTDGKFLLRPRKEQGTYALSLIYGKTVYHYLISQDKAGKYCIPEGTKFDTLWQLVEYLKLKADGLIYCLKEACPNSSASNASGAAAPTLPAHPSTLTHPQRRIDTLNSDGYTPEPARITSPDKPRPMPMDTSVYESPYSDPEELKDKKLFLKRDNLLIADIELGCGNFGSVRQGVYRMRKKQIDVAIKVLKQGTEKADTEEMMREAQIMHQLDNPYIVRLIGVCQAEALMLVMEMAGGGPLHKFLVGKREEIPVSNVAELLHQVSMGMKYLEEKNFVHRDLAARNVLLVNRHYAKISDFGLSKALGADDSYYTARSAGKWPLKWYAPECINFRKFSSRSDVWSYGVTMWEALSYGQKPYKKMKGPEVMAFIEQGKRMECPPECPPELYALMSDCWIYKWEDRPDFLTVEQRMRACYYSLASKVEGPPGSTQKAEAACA
# [6] = biological target: T3, panel of 255 wild-type kinases (Homo sapiens, UniProt O15530); details: kinase PDK1; 1 µmol/L single concentration; read-out: %-inhibition at 1 µmol/L, PDK1
# T3 sequence (O15530 1-556): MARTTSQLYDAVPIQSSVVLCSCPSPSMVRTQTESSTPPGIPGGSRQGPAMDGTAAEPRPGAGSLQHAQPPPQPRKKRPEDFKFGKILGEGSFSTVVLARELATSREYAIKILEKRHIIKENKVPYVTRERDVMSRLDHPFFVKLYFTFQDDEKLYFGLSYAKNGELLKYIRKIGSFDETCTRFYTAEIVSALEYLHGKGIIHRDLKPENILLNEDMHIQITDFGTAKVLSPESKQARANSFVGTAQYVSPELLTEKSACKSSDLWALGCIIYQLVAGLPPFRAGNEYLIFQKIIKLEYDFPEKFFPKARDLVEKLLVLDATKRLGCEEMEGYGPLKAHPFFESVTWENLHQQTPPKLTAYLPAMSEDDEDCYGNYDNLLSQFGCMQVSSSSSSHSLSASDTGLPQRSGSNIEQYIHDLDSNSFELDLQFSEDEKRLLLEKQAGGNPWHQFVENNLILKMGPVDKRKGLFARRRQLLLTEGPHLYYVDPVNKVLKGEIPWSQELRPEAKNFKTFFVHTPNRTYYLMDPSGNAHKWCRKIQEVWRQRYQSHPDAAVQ
# [7] = biological target: panel of 255 wild-type kinases (Homo sapiens, UniProt P06493); details: CDC2/CycB1 kinase assay; 1 µmol/L single concentration; read-out: %-inhibition CDC2/CycB1
# [8] = biological target: panel of 255 wild-type kinases (Homo sapiens, UniProt P53355); details: kinase DAPK1; 1 µmol/L single concentration; read-out: %-inhibition at 1 µmol/L, DAPK1
# [9] = kinase KDR, 1 µmol/L single concentration
Structure (SMILES),inhibition at 1 µM [1] [%],inhibition at 1 µM [2] [%],inhibition at 1 µM [3] [%],inhibition at 1 µM [4] [%],inhibition at 1 µM [5] [%],inhibition at 1 µM [6] [%],inhibition at 1 µM [7] [%],inhibition at 1 µM [8] [%],"inhibition at 1 µM [1, 9] [%]"
COc1ccc(CN2C3CC2CN(c2ccc(-c4cc(OCC(C)(C)O)cn5ncc(C#N)c45)cn2)C3)cn1 [selpercatinib],99,101,1.11,102,8,7,-4,26,
Cn1cnc2c(F)c(Nc3ccc(Br)cc3Cl)c(C(=O)NOCCO)cc21 [selumetinib],,8,-15,38,-1.11,2.11,-11,2.59,2.42
Cc1cc(Nc2ncnc3ccc(NC4=NC(C)(C)CO4)cc23)ccc1Oc1ccn2ncnc2c1 [tucatinib],,13,44,35,3.36,3,-7,1.6,4.29
C=CC(=O)N1CCC([C@@H]2CCNc3c(C(N)=O)c(-c4ccc(Oc5ccccc5)cc4)nn32)CC1 [zanubrutinib],,6.34,2.31,16,2,0.547,-7,-2,11
